The assay concerns the target T1, LRRK2 (endogenous, HiBit tagged) (Homo sapiens, UniProt Q5S007).
T1 construct: endogenous in cells; host or cells: HEK293 cells with HiBit knock-in at the endogenous LRRK2 locus, stably expressing firefly luciferase
Kind of assay: Endogenous LRRK2 degradation assay, endogenous gene C-terminally HiBit-tagged in HEK293 cells (Nano-Glo Dual Luciferase). In kind it is cell-based. Put shortly: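 LRRK2-HiBit quantified via Nano-Glo Dual Luciferase in HEK293 knock-in cells co-expressing firefly luciferase, after 24 h exposure to compound (1 μM final top, 1:3, 11 points). Values normalised to DMSO median per plate and curve-fitted; Alamar Blue viability run alongside.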
(With HiBiT, luminescence reflects the tagged protein that the partner subunit can reach.)

[1] abbreviates: endogenous HiBit-tagged LRRK2, HEK293 cells, 24 hours, read-out: **Endogenous WT Dmax (%).
[2] abbreviates: endogenous HiBit-tagged LRRK2, HEK293 cells, 24 hours, read-out: *Endogenous WT DC50.
The mark [3] stands for this setting: endogenous HiBit-tagged LRRK2 in HEK293 cells, 24 hours treatment, read-out: Endogenous WT DC50.
The mark [4] stands for this setting: endogenous HiBit-tagged LRRK2 in HEK293 cells, 24 hours treatment, read-out: Endogenous WT Dmax.
The mark [5] stands for this setting: endogenous HiBit-tagged LRRK2 in HEK293 cells, 24 hours treatment, read-out: **Endogenous WT Dmax (%).
Where [6] appears, read: endogenous HiBit-tagged LRRK2 in HEK293 cells, 24 hours treatment, read-out: *Endogenous WT DC50.

Broadly, the Dmax is the largest share of the target that was removed. As usually defined, the DC50 is the concentration at which degradation of the target reaches its halfway point.

Like-named read-outs stand apart in the source and are kept apart here.

T1 sequence (Q5S007 whole entry): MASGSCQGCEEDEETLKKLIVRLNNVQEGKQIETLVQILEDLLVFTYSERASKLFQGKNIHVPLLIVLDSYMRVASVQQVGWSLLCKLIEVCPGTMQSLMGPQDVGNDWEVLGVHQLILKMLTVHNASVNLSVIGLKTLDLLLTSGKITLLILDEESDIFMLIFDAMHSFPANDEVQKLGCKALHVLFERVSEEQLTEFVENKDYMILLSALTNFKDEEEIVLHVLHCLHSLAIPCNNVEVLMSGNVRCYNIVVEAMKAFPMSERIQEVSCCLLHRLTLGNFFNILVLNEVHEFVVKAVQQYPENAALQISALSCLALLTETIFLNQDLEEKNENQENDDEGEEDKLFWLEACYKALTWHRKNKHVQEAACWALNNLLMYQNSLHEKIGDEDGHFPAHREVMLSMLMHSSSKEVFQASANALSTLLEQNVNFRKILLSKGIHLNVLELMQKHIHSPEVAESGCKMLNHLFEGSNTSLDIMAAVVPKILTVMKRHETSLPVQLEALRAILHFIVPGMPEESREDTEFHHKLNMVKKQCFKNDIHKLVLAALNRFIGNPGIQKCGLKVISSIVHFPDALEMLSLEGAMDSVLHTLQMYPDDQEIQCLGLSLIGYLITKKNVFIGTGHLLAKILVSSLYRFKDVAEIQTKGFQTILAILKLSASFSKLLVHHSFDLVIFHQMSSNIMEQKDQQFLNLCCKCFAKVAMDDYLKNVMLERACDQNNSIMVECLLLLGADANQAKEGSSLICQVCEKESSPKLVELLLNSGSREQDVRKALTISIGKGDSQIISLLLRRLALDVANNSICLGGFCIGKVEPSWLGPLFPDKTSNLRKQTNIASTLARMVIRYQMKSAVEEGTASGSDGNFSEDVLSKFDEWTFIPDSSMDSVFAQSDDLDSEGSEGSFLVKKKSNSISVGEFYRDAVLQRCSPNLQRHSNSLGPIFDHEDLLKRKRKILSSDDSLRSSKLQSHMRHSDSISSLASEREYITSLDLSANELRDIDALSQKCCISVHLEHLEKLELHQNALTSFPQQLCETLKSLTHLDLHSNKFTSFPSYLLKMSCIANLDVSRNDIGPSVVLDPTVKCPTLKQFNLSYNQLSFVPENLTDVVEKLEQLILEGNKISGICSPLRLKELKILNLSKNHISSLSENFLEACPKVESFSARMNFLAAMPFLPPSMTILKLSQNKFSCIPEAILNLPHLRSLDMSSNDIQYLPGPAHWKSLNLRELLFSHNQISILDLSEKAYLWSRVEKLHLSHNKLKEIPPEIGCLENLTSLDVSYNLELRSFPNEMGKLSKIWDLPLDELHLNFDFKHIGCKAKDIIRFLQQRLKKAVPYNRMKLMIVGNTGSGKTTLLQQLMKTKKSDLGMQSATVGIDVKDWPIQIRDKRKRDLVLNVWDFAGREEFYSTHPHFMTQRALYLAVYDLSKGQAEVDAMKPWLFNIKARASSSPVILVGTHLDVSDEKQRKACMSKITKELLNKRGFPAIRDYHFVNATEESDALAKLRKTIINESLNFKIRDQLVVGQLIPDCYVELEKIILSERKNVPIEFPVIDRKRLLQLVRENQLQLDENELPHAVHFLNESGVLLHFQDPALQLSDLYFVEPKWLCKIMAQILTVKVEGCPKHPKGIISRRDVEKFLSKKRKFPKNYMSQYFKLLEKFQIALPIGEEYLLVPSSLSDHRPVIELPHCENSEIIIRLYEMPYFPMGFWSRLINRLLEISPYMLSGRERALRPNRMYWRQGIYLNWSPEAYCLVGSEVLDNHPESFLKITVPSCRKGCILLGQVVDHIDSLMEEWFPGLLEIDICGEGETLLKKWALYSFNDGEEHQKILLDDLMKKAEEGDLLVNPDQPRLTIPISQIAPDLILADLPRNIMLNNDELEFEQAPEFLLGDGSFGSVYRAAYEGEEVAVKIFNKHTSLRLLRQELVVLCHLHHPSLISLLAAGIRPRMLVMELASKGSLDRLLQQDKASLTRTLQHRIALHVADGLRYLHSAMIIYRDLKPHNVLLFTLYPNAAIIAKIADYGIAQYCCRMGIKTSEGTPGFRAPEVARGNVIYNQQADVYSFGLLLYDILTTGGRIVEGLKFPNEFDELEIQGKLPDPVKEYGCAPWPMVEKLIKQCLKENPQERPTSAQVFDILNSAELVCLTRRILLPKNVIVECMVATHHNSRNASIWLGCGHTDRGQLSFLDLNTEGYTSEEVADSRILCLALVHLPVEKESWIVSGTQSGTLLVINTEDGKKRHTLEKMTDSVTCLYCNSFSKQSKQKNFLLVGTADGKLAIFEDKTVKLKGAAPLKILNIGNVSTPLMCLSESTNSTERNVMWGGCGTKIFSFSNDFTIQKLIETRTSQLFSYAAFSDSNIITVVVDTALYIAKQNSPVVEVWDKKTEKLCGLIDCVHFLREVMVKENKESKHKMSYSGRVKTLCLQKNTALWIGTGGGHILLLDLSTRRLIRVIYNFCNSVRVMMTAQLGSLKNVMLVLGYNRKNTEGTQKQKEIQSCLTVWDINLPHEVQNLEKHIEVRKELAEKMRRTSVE

For the compound `CC1(Oc2ccc3[nH]nc(-c4cc(N5CCN(CC6(F)CCN(CC7CCN(c8cccc9c8CN(C8CCC(=O)NC8=O)C9=O)CC7)CC6)CC5)ncn4)c3c2)CC1` (centres unmarked) [Compound 179, 3-[4-[4-[[4-fluoro-4-[[4-[6-[5-(1-methylcyclopropoxy)-2H-indazol-3-yl]pyrimidin-4-yl]piperazin-1-yl]methyl]-1-piperidyl]methyl]-1-piperidyl]-1-oxo-isoindolin-2-yl]piperidine-2,6-dione], the greatest degradation seen (Dmax) under setting [1] is 50 to 70%. Under setting [2], the DC50 is under 10 nM.

Take `CC1(Oc2ccc3[nH]nc(-c4cnnc(N5CCC(O[C@H]6CC[C@H](CN7CCN(c8ccc9c(c8F)CN(C8CCC(=O)NC8=O)C9=O)CC7)CC6)CC5)c4)c3c2)CC1` (some centres unmarked) [Compound 377, 3-[4-fluoro-1-oxo-5-(4-{[(1r,4r)-4-[(1-{5-[5-(1-methylcyclopropoxy)-1H-indazol-3-yl]pyridazin-3-yl}piperidin-4-yl)oxy]cyclohexyl]methyl}piperazin-1-yl)-2,3-dihydro-1H-isoindol-2-yl]piperidine-2,6-dione]: under setting [3], the DC50 was under 10 nM. In addition, under setting [4], the greatest degradation seen (Dmax) is 50 to 70%.

`C[C@H]1CN(CC2CCN(CC3CCN(c4cc(-c5n[nH]c6ccc(OC7(C)CC7)cc56)ncn4)CC3)CC2)CCN1c1ccc2c(c1F)CN(C1CCC(=O)NC1=O)C2=O` (stereo partly drawn) [Compound 339, 3-{4-fluoro-5-[(2S)-2-methyl-4-({1-[(1-{6-[5-(1-methylcyclopropoxy)-1H-indazol-3-yl]pyrimidin-4-yl}piperidin-4-yl)methyl]piperidin-4-yl}methyl)piperazin-1-yl]-1-oxo-2,3-dihydro-1H-isoindol-2-yl}piperidine-2,6-dione]: under setting [5], the Dmax was in the range of 50 to 70%. For the same compound, the DC50 under setting [6] is under 10 nM.

`CC1(Oc2ccc3n[nH]c(-c4cc(N5CCN(C[C@H]6C[C@H](OC7CCN(c8ccc9c(c8F)CN(C8CCC(=O)NC8=O)C9=O)CC7)C6)CC5)ncn4)c3c2)CC1` (some centres unmarked) [Compound 300, 3-(4-fluoro-1-oxo-5-{4-[(1r,3r)-3-[(4-{6-[5-(1-methylcyclopropoxy)-2H-indazol-3-yl]pyrimidin-4-yl}piperazin-1-yl)methyl]cyclobutoxy]piperidin-1-yl}-2,3-dihydro-1H-isoindol-2-yl)piperidine-2,6-dione]: the Dmax under setting [5] lay in the range of 50 to 70%. The DC50 under setting [6] is under 10 nM.

`CC1(Oc2ccc3[nH]nc(-c4cc(N5CCC(CN6CCN(CC7CCN(c8cc9c(cc8F)C(=O)N(C8CCC(=O)NC8=O)C9)CC7)CC6)CC5)ncn4)c3c2)CC1` (centres unmarked) [Compound 180, 3-[6-fluoro-5-[4-[[4-[[1-[6-[5-(1-methylcyclopropoxy)-1H-indazol-3-yl]pyrimidin-4-yl]-4-piperidyl]methyl]piperazin-1-yl]methyl]-1-piperidyl]-1-oxo-isoindolin-2-yl]piperidine-2,6-dione]: the Dmax under setting [1] was at least 70%. Under setting [2], the DC50 was under 10 nM.

As for `COc1c(N2CCC(CN3CCN(CC4CCN(c5cc(-c6n[nH]c7ccc(OC8(C)CC8)cc67)ncn5)CC4)C[C@H]3C)CC2)ccc2c1CN(C1CCC(=O)NC1=O)C2=O` (stereo partly drawn) [Compound 285, 3-[4-methoxy-5-(4-{[(2R)-2-methyl-4-[(1-{6-[5-(1-methylcyclopropoxy)-1H-indazol-3-yl]pyrimidin-4-yl}piperidin-4-yl)methyl]piperazin-1-yl]methyl}piperidin-1-yl)-1-oxo-2,3-dihydro-1H-isoindol-2-yl]piperidine-2,6-dione], the greatest degradation seen (Dmax) under setting [5] was at least 70%. The DC50 under setting [6] is under 10 nM.

In the case of `COc1c(N2CCC(O[C@H]3CC[C@H](CN4CCN(c5cc(-c6n[nH]c7ccc(OC8(C)CC8)cc67)ncn5)CC4(C)C)CC3)CC2)ccc2c1CN(C1CCC(=O)NC1=O)C2=O` (some centres unmarked) [Compound 382, 3-[4-methoxy-1-oxo-5-(4-{[(1r,4r)-4-[(2,2-dimethyl-4-{6-[5-(1-methylcyclopropoxy)-1H-indazol-3-yl]pyrimidin-4-yl}piperazin-1-yl)methyl]cyclohexyl]oxy}piperidin-1-yl)-2,3-dihydro-1H-isoindol-2-yl]piperidine-2,6-dione], the DC50 under setting [3] was in the range of 10 to 50 nM. Besides, the Dmax under setting [4] was 50 to 70%.

`CC1(Oc2ccc3[nH]nc(-c4cc(N5CCC(CN6CCN(C[C@@H]7CCN(c8ccc9c(c8F)CN(C8CCC(=O)NC8=O)C9=O)C7)CC6)CC5)ncn4)c3c2)CC1` (stereo partly drawn) [Compound 321, 3-{4-fluoro-5-[(3S)-3-({4-[(1-{6-[5-(1-methylcyclopropoxy)-1H-indazol-3-yl]pyrimidin-4-yl}piperidin-4-yl)methyl]piperazin-1-yl}methyl)pyrrolidin-1-yl]-1-oxo-2,3-dihydro-1H-isoindol-2-yl}piperidine-2,6-dione]: the Dmax under setting [5] lay within 50 to 70%. Under setting [6], the DC50 was under 10 nM.

On to `COc1c(N2CCC(CN3CCC(OC4CN(c5cc(-c6[nH]nc7ccc(OC8(C)CC8)cc67)ncn5)C4)CC3)CC2)ccc2c1CN(C1CCC(=O)NC1=O)C2=O` (centres unmarked) [Compound 298, 3-{4-methoxy-5-[4-({4-[(1-{6-[5-(1-methylcyclopropoxy)-2H-indazol-3-yl]pyrimidin-4-yl}azetidin-3-yl)oxy]piperidin-1-yl}methyl)piperidin-1-yl]-1-oxo-2,3-dihydro-1H-isoindol-2-yl}piperidine-2,6-dione], for which the Dmax under setting [5] lay within 50 to 70%. Further, under setting [6], the DC50 was under 10 nM.

Turning to `CC1(Oc2ccc3[nH]nc(-c4cc(N5CCC(CN6CC[C@H](OC7CCN(c8ccc9c(c8F)CN(C8CCC(=O)NC8=O)C9=O)CC7)CC6(C)C)CC5)ncn4)c3c2)CC1` (stereo partly drawn) [Compound 313, 3-[5-(4-{[(4S)-2,2-dimethyl-1-[(1-{6-[5-(1-methylcyclopropoxy)-1H-indazol-3-yl]pyrimidin-4-yl}piperidin-4-yl)methyl]piperidin-4-yl]oxy}piperidin-1-yl)-4-fluoro-1-oxo-2,3-dihydro-1H-isoindol-2-yl]piperidine-2,6-dione], the Dmax under setting [5] lay within 50 to 70%. Also, the DC50 under setting [6] is under 10 nM.

As to `COc1cc2c(cc1N1CCC(CN3CCC(F)(CN4CCN(c5cc(-c6[nH]nc7ccc(OC8(C)CC8)cc67)ncn5)CC4)CC3)CC1)CN(C1CCC(=O)NC1=O)C2=O` (centres unmarked) [Compound 198, 3-[5-[4-[[4-fluoro-4-[[4-[6-[5-(1-methylcyclopropoxy)-2H-indazol-3-yl]pyrimidin-4-yl]piperazin-1-yl]methyl]-1-piperidyl]methyl]-1-piperidyl]-6-methoxy-1-oxo-isoindolin-2-yl]piperidine-2,6-dione], the Dmax under setting [1] was at least 70%. Further, under setting [2], the DC50 is under 10 nM.

For `CC1(Oc2ccc3[nH]nc(-c4cc(N5CCC(CN6C[C@@H]7C[C@H]6CN7CC6CCN(c7ccc8c(c7F)CN(C7CCC(=O)NC7=O)C8=O)CC6)CC5)ncn4)c3c2)CC1` (stereo partly drawn) [Compound 230, 3-[4-fluoro-5-(4-{[(1S,4S)-5-[(1-{6-[5-(1-methylcyclopropoxy)-1H-indazol-3-yl]pyrimidin-4-yl}piperidin-4-yl)methyl]-2,5-diazabicyclo[2.2.1]heptan-2-yl]methyl}piperidin-1-yl)-1-oxo-2,3-dihydro-1H-isoindol-2-yl]piperidine-2,6-dione], the DC50 under setting [3] is under 10 nM. Moreover, under setting [4], the Dmax fell in the range of 50 to 70%.

Regarding `CC1(Oc2ccc3[nH]nc(-c4cc(N5CCN(C[C@H]6CC[C@H](OC7CCN(c8ccc9c(c8F)CN(C8CCC(=O)NC8=O)C9=O)CC7)CC6)C(C)(C)C5)ncn4)c3c2)CC1` (some centres unmarked) [Compound 381, 3-[4-fluoro-1-oxo-5-(4-{[(1r,4r)-4-[(2,2-dimethyl-4-{6-[5-(1-methylcyclopropoxy)-1H-indazol-3-yl]pyrimidin-4-yl}piperazin-1-yl)methyl]cyclohexyl]oxy}piperidin-1-yl)-2,3-dihydro-1H-isoindol-2-yl]piperidine-2,6-dione], the DC50 under setting [3] is 10 to 50 nM. In addition, the Dmax under setting [4] is under 50%.

Turning to `CC1(Oc2ccc3[nH]nc(-c4cc(N5CCC(O[C@H]6CC[C@H](CN7CCN(c8ccc9c(c8Cl)CN(C8CCC(=O)NC8=O)C9=O)CC7)CC6)CC5)ncn4)c3c2)CC1` (some centres unmarked) [Compound 249, 3-[4-chloro-1-oxo-5-(4-{[(1r,4r)-4-[(1-{6-[5-(1-methylcyclopropoxy)-1H-indazol-3-yl]pyrimidin-4-yl}piperidin-4-yl)oxy]cyclohexyl]methyl}piperazin-1-yl)-2,3-dihydro-1H-isoindol-2-yl]piperidine-2,6-dione], the DC50 under setting [3] is under 10 nM. Also, the Dmax under setting [4] fell in the range of 50 to 70%.

Turning to `CC1(Oc2ccc3[nH]nc(-c4cc(N5CCC(CN6CCC(F)(CN7CCN(c8c(F)cc9c(c8F)CN(C8CCC(=O)NC8=O)C9=O)CC7)CC6)CC5)ncn4)c3c2)CC1` (centres unmarked) [Compound 373, 3-{4,6-difluoro-5-[4-({4-fluoro-1-[(1-{6-[5-(1-methylcyclopropoxy)-1H-indazol-3-yl]pyrimidin-4-yl}piperidin-4-yl)methyl]piperidin-4-yl}methyl)piperazin-1-yl]-1-oxo-2,3-dihydro-1H-isoindol-2-yl}piperidine-2,6-dione], the DC50 under setting [3] is under 10 nM. In addition, under setting [4], the Dmax was at least 70%.

In the case of `CC1(Oc2ccc3[nH]nc(-c4cc(N5CCC(CN6CCC7(CN(c8ccc9c(c8F)CN(C8CCC(=O)NC8=O)C9=O)C7)C(F)(F)C6)CC5)ncn4)c3c2)CC1` (centres unmarked) [Compound 350, 3-(5-{5,5-difluoro-7-[(1-{6-[5-(1-methylcyclopropoxy)-1H-indazol-3-yl]pyrimidin-4-yl}piperidin-4-yl)methyl]-2,7-diazaspiro[3.5]nonan-2-yl}-4-fluoro-1-oxo-2,3-dihydro-1H-isoindol-2-yl)piperidine-2,6-dione], under setting [5], the greatest degradation seen (Dmax) is 50 to 70%. In addition, the DC50 under setting [6] was under 10 nM.

These data come from patent US12559506B2, “Indazole based compounds and associated methods of use” (Arvinas Operations, Inc., priority 2021, dated 2026).
